# Experimental data published in patent US20080004344A1, “Novel Salts of Fumaric Acid Monoalkylesters and Their Pharmaceutical Use” (ADITECH PHARMA AB, priority 2004, published 2008).
# Legend:
# IL-8 = experiment: Monocyte stimulation cultures of PBMC (LPS or unstimulated), IL-8 ELISA
# TNF-alpha = experiment: Monocyte stimulation cultures of PBMC (LPS or unstimulated), TNF-alpha ELISA; type: cell-based, human
# Method: (§1) PBMC were isolated from blood of two healthy volunteers (person) via Ficoll density gradient centrifugation. The purified cells were used in parallel cultures for monocyte stimulations using Lipopolysaccharide (LPS) and T cell specific stimulations using bead-coupled antibodies directed against the T cell activation antigens CD3 and CD28.
# (§2) Cultures were incubated in a tissue culture incubator at 37° C., 5% CO2 for 20 h, culture supernatants were harvested at the end of the culture period and used for cytokine quantitation. The measured cytokines in cell culture supernatants from either monocyte stimulation cultures (IL-8, IL-10, TNF-α) or T cell stimulation cultures (IL-2, IL-4) were quantitated with ELISAs (Becton Dickinson) according to the manufacturers instructions. The resulting optical density (OD) was measured on a Packard Fusion Reader and OD values were translated to cytokine concentrations (in pg/ml) with the use of the Fusion Reader Data Analysis Software.
# IL-2 = experiment: T cell specific stimulation of PBMC (CD3/CD28 beads), IL-2 ELISA; type: cell-based, human; conditions: for IL-2 Conc: CD3/CD28 beads
# Method: as §1, §2
# IL-10 = experiment: Monocyte stimulation cultures of PBMC (LPS or unstimulated), IL-10 ELISA
# IL-4 = experiment: T cell specific stimulation of PBMC (CD3/CD28 beads), IL-4 ELISA; type: cell-based, human; conditions: for IL-4 Conc: CD3/CD28 beads
# Method: as §1, §2
# [1] = pH-value of the solution on dissolving in water; type: physicochemical; conditions: dissolved in water
# Method: When strontium monomethyl fumarate is dissolved in water, the pH-value of the solution raises to alkaline values (pH˜9-10), owing to production of hydroxyl ions: Sr(C5H5O4)2+2H2O→Sr^2+(aq)+2C5H6O4(aq)+2OH^−(aq) (2)
# [2] = LPS 1 ng/ml, 10 μM MMF, Donor 1
# [3] = LPS 1 ng/ml, 10 μM MMF, Donor 2
# [4] = LPS 1 ng/ml, 30 μM MMF, Donor 1
# [5] = LPS 1 ng/ml, 30 μM MMF, Donor 2
# [6] = LPS 1 ng/ml, 100 μM MMF, Donor 1
# [7] = LPS 1 ng/ml, 100 μM MMF, Donor 2
# [8] = LPS 1 ng/ml, 300 μM MMF, Donor 1
# [9] = LPS 1 ng/ml, 300 μM MMF, Donor 2
# [10] = no LPS printed for these rows, 1 μM MMF, Donor 1
# [11] = no LPS printed for these rows, 1 μM MMF, Donor 2
# [12] = no LPS printed for these rows, 3 μM MMF, Donor 1
# [13] = no LPS printed for these rows, 3 μM MMF, Donor 2
# [14] = no LPS printed for these rows, 10 μM MMF, Donor 1
# [15] = no LPS printed for these rows, 10 μM MMF, Donor 2
# [16] = no LPS printed for these rows, 30 μM MMF, Donor 1
# [17] = no LPS printed for these rows, 30 μM MMF, Donor 2
# [18] = no LPS printed for these rows, 100 μM MMF, Donor 1
# [19] = no LPS printed for these rows, 100 μM MMF, Donor 2
# [20] = no LPS printed for these rows, 300 μM MMF, Donor 1
# [21] = no LPS printed for these rows, 300 μM MMF, Donor 2
# [22] = no LPS printed for these rows, 1 mM MMF, Donor 1
# [23] = no LPS printed for these rows, 1 mM MMF, Donor 2
# [24] = no LPS printed for these rows, 3 mM MMF, Donor 1
# [25] = no LPS printed for these rows, 3 mM MMF, Donor 2
# [26] = as single stimulant (unstimulated monocytes)
substance,measurement,setting,value
di-strontium-tetrakis-(mono methyl fumarate)-tetra hydrate [strontium MMF],IL-8 Conc,"IL-8; LPS 1 ng/ml, 1 μM MMF, Donor 1",35264 pg/mL
same,IL-8 Conc,"IL-8; LPS 1 ng/ml, 1 μM MMF, Donor 2",25146 pg/mL
same,IL-8 Conc,"IL-8; LPS 1 ng/ml, 3 μM MMF, Donor 1",26255 pg/mL
same,IL-8 Conc,"IL-8; LPS 1 ng/ml, 3 μM MMF, Donor 2",24672 pg/mL
same,IL-8 Conc,IL-8; [2],1259306 pg/mL
same,IL-8 Conc,IL-8; [3],70691 pg/mL
same,IL-8 Conc,IL-8; [4],1369127 pg/mL
same,IL-8 Conc,IL-8; [5],1357587 pg/mL
same,IL-8 Conc,IL-8; [6],80524 pg/mL
same,IL-8 Conc,IL-8; [7],1285660 pg/mL
same,IL-8 Conc,IL-8; [8],7135 pg/mL
same,IL-8 Conc,IL-8; [9],31370 pg/mL
same,IL-8 Conc,"IL-8; LPS 1 ng/ml, 1 mM MMF, Donor 1",558 pg/mL
same,IL-8 Conc,"IL-8; LPS 1 ng/ml, 1 mM MMF, Donor 2",2825 pg/mL
same,IL-8 Conc,"IL-8; LPS 1 ng/ml, 3 mM MMF, Donor 1",86 pg/mL
same,IL-8 Conc,"IL-8; LPS 1 ng/ml, 3 mM MMF, Donor 2",424 pg/mL
same,effect on IL-8 secretion,IL-8; LPS stimulated monocytes,did not induce a co-stimulation
same,IL-8 Conc,IL-8; [10],138285 pg/mL
same,IL-8 Conc,IL-8; [11],241352 pg/mL
same,IL-8 Conc,IL-8; [12],219130 pg/mL
same,IL-8 Conc,IL-8; [13],349450 pg/mL
same,IL-8 Conc,IL-8; [14],249798 pg/mL
same,IL-8 Conc,IL-8; [15],446267 pg/mL
same,IL-8 Conc,IL-8; [16],179340 pg/mL
same,IL-8 Conc,IL-8; [17],315447 pg/mL
same,IL-8 Conc,IL-8; [18],60312 pg/mL
same,IL-8 Conc,IL-8; [19],153980 pg/mL
same,IL-8 Conc,IL-8; [20],12354 pg/mL
same,IL-8 Conc,IL-8; [21],31040 pg/mL
same,IL-8 Conc,IL-8; [22],1696 pg/mL
same,IL-8 Conc,IL-8; [23],5363 pg/mL
same,IL-8 Conc,IL-8; [24],176 pg/mL
same,IL-8 Conc,IL-8; [25],577 pg/mL
same,effect on IL-8 secretion,IL-8; unstimulated monocytes,did induce an induction
same,TNF-alpha Conc,"TNF-alpha; LPS 1 ng/ml, 1 μM MMF, Donor 1",464 pg/mL
same,TNF-alpha Conc,"TNF-alpha; LPS 1 ng/ml, 1 μM MMF, Donor 2",459 pg/mL
same,TNF-alpha Conc,"TNF-alpha; LPS 1 ng/ml, 3 μM MMF, Donor 1",631 pg/mL
same,TNF-alpha Conc,"TNF-alpha; LPS 1 ng/ml, 3 μM MMF, Donor 2",650 pg/mL
same,TNF-alpha Conc,TNF-alpha; [2],1624 pg/mL
same,TNF-alpha Conc,TNF-alpha; [3],2559 pg/mL
same,TNF-alpha Conc,TNF-alpha; [4],1787 pg/mL
same,TNF-alpha Conc,TNF-alpha; [5],3289 pg/mL
same,TNF-alpha Conc,TNF-alpha; [6],250 pg/mL
same,TNF-alpha Conc,TNF-alpha; [7],711 pg/mL
same,TNF-alpha Conc,TNF-alpha; [8],20 pg/mL
same,TNF-alpha Conc,TNF-alpha; [9],96 pg/mL
same,TNF-alpha Conc,"TNF-alpha; LPS 1 ng/ml, 1 mM MMF, Donor 1",0 pg/mL
same,TNF-alpha Conc,"TNF-alpha; LPS 1 ng/ml, 1 mM MMF, Donor 2",11 pg/mL
same,TNF-alpha Conc,"TNF-alpha; LPS 1 ng/ml, 3 mM MMF, Donor 1",0 pg/mL
same,TNF-alpha Conc,"TNF-alpha; LPS 1 ng/ml, 3 mM MMF, Donor 2",0 pg/mL
same,effect on TNF-alpha secretion,TNF-alpha; LPS-stimulated monocytes,co-stimulatory
same,effect on TNF-alpha secretion,TNF-alpha; [26],induced
same,TNF-alpha Conc,TNF-alpha; [10],29 pg/mL
same,TNF-alpha Conc,TNF-alpha; [11],13 pg/mL
same,TNF-alpha Conc,TNF-alpha; [12],38 pg/mL
same,TNF-alpha Conc,TNF-alpha; [13],10 pg/mL
same,TNF-alpha Conc,TNF-alpha; [14],570 pg/mL
same,TNF-alpha Conc,TNF-alpha; [15],47 pg/mL
same,TNF-alpha Conc,TNF-alpha; [16],1343 pg/mL
same,TNF-alpha Conc,TNF-alpha; [17],682 pg/mL
same,TNF-alpha Conc,TNF-alpha; [18],313 pg/mL
same,TNF-alpha Conc,TNF-alpha; [19],236 pg/mL
same,TNF-alpha Conc,TNF-alpha; [20],3 pg/mL
same,TNF-alpha Conc,TNF-alpha; [21],12 pg/mL
same,TNF-alpha Conc,TNF-alpha; [22],0 pg/mL
same,TNF-alpha Conc,TNF-alpha; [23],3 pg/mL
same,TNF-alpha Conc,TNF-alpha; [24],0 pg/mL
same,TNF-alpha Conc,TNF-alpha; [25],0 pg/mL
same,IL-2 Conc,"IL-2; 1 μM MMF, Donor 1",5787 pg/mL
same,IL-2 Conc,"IL-2; 1 μM MMF, Donor 2",2559 pg/mL
same,IL-2 Conc,"IL-2; 3 μM MMF, Donor 1",4699 pg/mL
same,IL-2 Conc,"IL-2; 3 μM MMF, Donor 2",1754 pg/mL
same,IL-2 Conc,"IL-2; 10 μM MMF, Donor 1",5901 pg/mL
same,IL-2 Conc,"IL-2; 10 μM MMF, Donor 2",1905 pg/mL
same,IL-2 Conc,"IL-2; 30 μM MMF, Donor 1",4592 pg/mL
same,IL-2 Conc,"IL-2; 30 μM MMF, Donor 2",2079 pg/mL
same,IL-2 Conc,"IL-2; 100 μM MMF, Donor 1",170 pg/mL
same,IL-2 Conc,"IL-2; 100 μM MMF, Donor 2",65 pg/mL
same,IL-2 Conc,"IL-2; 300 μM MMF, Donor 1",2 pg/mL
same,IL-2 Conc,"IL-2; 300 μM MMF, Donor 2",0 pg/mL
same,IL-2 Conc,"IL-2; 1 mM MMF, Donor 1",0 pg/mL
same,IL-2 Conc,"IL-2; 1 mM MMF, Donor 2",1 pg/mL
same,IL-2 Conc,"IL-2; 3 mM MMF, Donor 1",1 pg/mL
same,IL-2 Conc,"IL-2; 3 mM MMF, Donor 2",3 pg/mL
same,effect on IL-2 secretion,IL-2; after T-cell stimulation,co-induction
same,IL-10 Conc,"IL-10; LPS 1 ng/ml, 1 μM MMF, Donor 1",11 pg/mL
same,IL-10 Conc,"IL-10; LPS 1 ng/ml, 1 μM MMF, Donor 2",11 pg/mL
same,IL-10 Conc,"IL-10; LPS 1 ng/ml, 3 μM MMF, Donor 1",13 pg/mL
same,IL-10 Conc,"IL-10; LPS 1 ng/ml, 3 μM MMF, Donor 2",5 pg/mL
same,IL-10 Conc,IL-10; [2],106 pg/mL
same,IL-10 Conc,IL-10; [3],13 pg/mL
same,IL-10 Conc,IL-10; [4],62 pg/mL
same,IL-10 Conc,IL-10; [5],32 pg/mL
same,IL-10 Conc,IL-10; [6],7 pg/mL
same,IL-10 Conc,IL-10; [7],0 pg/mL
same,IL-10 Conc,IL-10; [8],0 pg/mL
same,IL-10 Conc,IL-10; [9],0 pg/mL
same,IL-10 Conc,"IL-10; LPS 1 ng/ml, 1 mM MMF, Donor 1",2 pg/mL
same,IL-10 Conc,"IL-10; LPS 1 ng/ml, 1 mM MMF, Donor 2",0 pg/mL
same,IL-10 Conc,"IL-10; LPS 1 ng/ml, 3 mM MMF, Donor 1",1 pg/mL
same,IL-10 Conc,"IL-10; LPS 1 ng/ml, 3 mM MMF, Donor 2",0 pg/mL
same,effect on IL-10 secretion,IL-10; LPS-stimulated monocytes,co-induced
same,effect on IL-10 secretion,IL-10; [26],induced
same,IL-10 Conc,IL-10; [10],775 pg/mL
same,IL-10 Conc,IL-10; [11],1125 pg/mL
same,IL-10 Conc,IL-10; [12],886 pg/mL
same,IL-10 Conc,IL-10; [13],1385 pg/mL
same,IL-10 Conc,IL-10; [14],1026 pg/mL
same,IL-10 Conc,IL-10; [15],2035 pg/mL
same,IL-10 Conc,IL-10; [16],351 pg/mL
same,IL-10 Conc,IL-10; [17],800 pg/mL
same,IL-10 Conc,IL-10; [18],7 pg/mL
same,IL-10 Conc,IL-10; [19],40 pg/mL
same,IL-10 Conc,IL-10; [20],0 pg/mL
same,IL-10 Conc,IL-10; [21],0 pg/mL
same,IL-10 Conc,IL-10; [22],0 pg/mL
same,IL-10 Conc,IL-10; [23],0 pg/mL
same,IL-10 Conc,IL-10; [24],0 pg/mL
same,IL-10 Conc,IL-10; [25],0 pg/mL
same,IL-4 Conc,"IL-4; 1 μM MMF, Donor 1",60 pg/mL
same,IL-4 Conc,"IL-4; 1 μM MMF, Donor 2",12 pg/mL
same,IL-4 Conc,"IL-4; 3 μM MMF, Donor 1",70 pg/mL
same,IL-4 Conc,"IL-4; 3 μM MMF, Donor 2",10 pg/mL
same,IL-4 Conc,"IL-4; 10 μM MMF, Donor 1",69 pg/mL
same,IL-4 Conc,"IL-4; 10 μM MMF, Donor 2",12 pg/mL
same,IL-4 Conc,"IL-4; 30 μM MMF, Donor 1",92 pg/mL
same,IL-4 Conc,"IL-4; 30 μM MMF, Donor 2",20 pg/mL
same,IL-4 Conc,"IL-4; 100 μM MMF, Donor 1",3 pg/mL
same,IL-4 Conc,"IL-4; 100 μM MMF, Donor 2",0 pg/mL
same,IL-4 Conc,"IL-4; 300 μM MMF, Donor 1",0 pg/mL
same,IL-4 Conc,"IL-4; 300 μM MMF, Donor 2",0 pg/mL
same,IL-4 Conc,"IL-4; 1 mM MMF, Donor 1",0 pg/mL
same,IL-4 Conc,"IL-4; 1 mM MMF, Donor 2",0 pg/mL
same,IL-4 Conc,"IL-4; 3 mM MMF, Donor 1",0 pg/mL
same,IL-4 Conc,"IL-4; 3 mM MMF, Donor 2",0 pg/mL
same,effect on IL-4 secretion,IL-4; after T-cell stimulation,co-induction
same,pH-value of the solution,[1],9-10
